Molecular target: T1, pregnane X receptor (PXR) (Homo sapiens, UniProt O75469)
T1 construct: gene NR1I2
T1 sequence (O75469 106-434): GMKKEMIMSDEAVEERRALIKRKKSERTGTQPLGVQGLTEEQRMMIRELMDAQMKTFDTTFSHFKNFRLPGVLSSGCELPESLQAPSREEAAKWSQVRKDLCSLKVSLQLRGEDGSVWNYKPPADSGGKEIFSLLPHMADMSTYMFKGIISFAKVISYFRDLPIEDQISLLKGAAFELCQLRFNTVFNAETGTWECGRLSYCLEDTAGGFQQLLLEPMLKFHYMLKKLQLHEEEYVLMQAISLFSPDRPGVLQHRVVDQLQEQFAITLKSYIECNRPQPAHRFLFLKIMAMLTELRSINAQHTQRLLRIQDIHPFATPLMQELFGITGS
Test: biochemical

Kd: 6.6 µM
SMILES: COc1cc2c(c(OC)c1OC)-c1c(cc3c(c1OC)OCO3)CC(C)C(C)C2 (stereo not shown) [Sin B, Schisandrin B]

Source: article PMC12681940, “Schisandrin B Targets PXR to Enhance Bile Acid Metabolism and Alleviate ANIT-Induced Cholestatic Liver Injury via Dual Pathways” (International Journal of Biological Sciences, 2026)
